Measured values as given in PMC12704579, “New Anticancer 4‐Aryldihydropyrimidinone‐5‐Carboxylates Targeting Hsp90” (Chemical Biology & Drug Design, 2025).
“And” between values parts separate entries of the source, which are not always exact repeats. Equal values may be shown once.

Legend:
[1] = CellTiter-Blue cell viability assay, HEK-293 (24 h); assay type: cell-based, human; details: human, HEK-293 cells, CellTiter-Blue, 24 h incubation, 10 μM test compound, standardised to DMSO control
Protocol: (§1) Human Embryonic Kidney cells (HEK‐293) and human breast cancer cells (MCF‐7, MDA‐MB‐231 and HCC1954) were cultured in complete growth media: […] 1X (Gibco); 10% v/v Fetal Bovine Serum (FBS, Sigma Dorset UK) and L‐glutamine (2 mM, Invitrogen). SW‐480‐WT cells were maintained in selective media made up of Dulbecco's Modified Eagle Medium (Gibco), enriched with […] of Geneticin Selective Antibiotic (G418 Sulfate; Gibco, Thermo Fisher). Cells were incubated at a 5% CO2 atmosphere at 37°C.
(§2) Cells were cultured in 96‐well plates in 90 μL at a seeding density of 1 × 10^6 cells per well. Compound samples were prepared at different concentrations (1 mM, 100 μM, 10 μM, 1 μM, 100 nM, 10 nM) and 10 μL of each concentration was seeded in each well. Two different negative controls were used: DMSO 0.01% and 0.001%. Paclitaxel (30% w/v) was used as a positive control. Cells were treated for 24 h after which 20 μL of CellTitre‐Blue reagent (Promega, Southampton, UK) was added and incubated for 2 h at 37°C in 5% CO2. Fluorescence was measured at 560/590 nm on a Fluorostar Optima plate reader (BMG Labtech, Bucks, UK). Assay end points were normalised to 0% (DMSO only) and fitted to a semilog plot using at least n = 3 technical replicates (n = 6 for DMSO control and paclitaxel control) and N = 3 independent replicates. The curve fit was performed using the GraphPad Prism software and the standard Hill equation.
(§3) In view of previous reports on Hsp90 inhibitors and their effects on cancer cell viability (Eachkoti et al. [2014]) and clonogenicity (Kinzel et al. [2016]), new compounds were tested for inhibition of cell viability within both non‐tumourigenic (HEK‐293) and breast cancer cell lines (MDA‐MB‐231) at a fixed concentration of 10 μM. The well‐established CellTiter‐Blue endpoint assay was used to assess cell viability. New compounds were also assessed in a colony forming assay (MCF‐7 breast cancer cell line), used as an efficacy screening to provide an indication of the inhibition of clonogenicity for these small molecules (Table 1).

HEK-293 cells = assay: as above; assay type: cell-based, human; details: Homo sapiens, HEK293; 24 h incubation time
Protocol: as §1, §2, §3

MDA-MB-231 cells = assay: CellTiter-Blue cell viability assay, MDA-MB-231 (24 h); assay type: cell-based, human; details: for GI50: 24 h incubation time; for viability at 10 µM / % Viability (MDA-MB-231, 10 μM): CellTiter-Blue, 24 h incubation, 10 μM test compound, standardised to DMSO control
Protocol: as §1, §2, §3

MCF-7 cells = assay: Colony forming assay, MCF-7; assay type: cell-based, human; details: for IC50: Homo sapiens, MCF7, 168 h, 7 days; for % Clonogenicity (MCF-7, 10 μM): percentage of survival colonies, 7-day incubation, standardised to DMSO control
Protocol: as §1
Cells were seeded in a 12‐well plate at 400 cells per well. One hour after the seeding of the cells, compounds (1 mM, 100 μM, 10 μM, 1 μM, 100 nM, 10 nM) or vehicle were added into the wells in triplicate (DMSO vehicle 0.1% and 1%). After 7 days, colonies were stained with 350 μL of crystal violet solution, incubated for 30 min at room temperature, then wells were washed in water and dried. At least the best 3 independent experiments out of 5 independent repeats were used to perform the statistical analysis of the results. Colonies were counted by GelCount Colony Counter (Oxford Optronix Ltd.) using the GelCount 1.1.8.0 software. Assay end points were normalised to 0% (DMSO only) and fitted to a semi‐log plot using at least n = 3 technical replicates (n = 6 for DMSO control and N = 3 independent replicates). The curve fit was performed using GraphPad Prism.
as §3

[2] = target: T1, Recombinant human Hsp90 alpha protein (Homo sapiens, UniProt P07900); assay: Transcreener ADP FP Hsp90 ATPase assay; assay type: biochemical; details: Recombinant human HSP90, 100 μM ATP; read-out: ATPase assay on rh-Hsp90 IC50
T1 construct: human full‐length protein, expressed in Escherichia coli; His tag (C); purchased Abcam ab80369; host or cells: Escherichia coli
Protocol: Transcreener ADP (cat. no. 3004‐1K) and ADP2 (cat. no. 3010‐1K) FP assay kits were obtained from Bellbrook Laboratories. Recombinant human Hsp90 alpha protein (active), human full‐length protein, expressed in Escherichia coli with > 90% purity and C‐terminus His tag, was purchased from Abcam (ab80369). All FP assays were carried out in black, 384‐well, low‐volume, polystyrene nonbinding microplates from Corning Life Sciences. All basic buffer components were obtained from Sigma‐Aldrich Chemical Co. 17‐AAG (Figure 1) was obtained from Abcam. Using the Transcreener ADP FP kit, the conditions for the recombinant human Hsp90 ATPase reaction were 50 mM HEPES (pH 7.4), 20 mM KCl, 2 mM EGTA, 4 mM MgCl2, and 0.01% Brij‐35 in a 10‐μL total assay volume. The final assay concentration of ATP was 100 μM for Hsp90. Due to the relatively low level of ATPase activity compared with other enzymes, the plate was incubated at 37°C and run over 1, 2 and 3 h time points. The reaction was stopped, and the ADP was detected by adding 10 μL of 50 mM HEPES (pH 7.4), 400 mM NaCl, 20 mM EDTA, 0.01% Brij35, 75 μg/mL anti‐ADP monoclonal antibody, and 4 nM ADP far red tracer. The plate was sealed, centrifuged at 600 g for 1 min, and left at room temperature for 1 h. FP readings for the Hsp90 ATPase Transcreener assays were performed on a Clariostar plate reader ([…]). A blank mP signal composed of protein, antibody, labelled ADP, but no ATP substrate gave similar mP values to those seen in the no‐protein controls. The upper limit of the assay window was defined by a no‐protein control, and the mP in the presence of heat shock protein was subtracted from this control to generate a change in polarisation (ΔmP), which was plotted on the activity graphs. Therefore, the data take into account the spontaneous hydrolysis of ATP. Each value is the mean of triplicate determinations with standard deviations (SD) shown. IC50 values were calculated using GraphPad Prism software with the nonlinear regression curve fitted to the log (inhibitor concentration) against the raw mP values on the linear portion of the standard curve.

GI50 (MDA-MB-231 cells; Homo sapiens, MDA-MB-231, 24 h) [µM] | IC50 (MCF-7 cells) [nM] | IC50 [2] [µM] | GI50 (MDA-MB-231 cells) [µM] | SMILES | viability at 24 h, 10 µM [1] [%] | GI50 (HEK-293 cells) [µM] | viability at 10 µM (MDA-MB-231 cells; Homo sapiens, MDA-MB-231, 24 h) [%] | % Clonogenicity (MCF-7, 10 μM) (MCF-7 cells) | % Viability (MDA-MB-231, 10 μM) (MDA-MB-231 cells) [%]
86.2 | 5030 | 5.36 |  | COc1ccc(C2NC(=O)NC(C)=C2C(=O)OCc2ccccc2)c(F)c1 (stereo not drawn) [Compound 5a, Benzyl 4‐(2‐Fluoro‐4‐Methoxyphenyl)‐6‐Methyl‐2‐Oxo‐1,2,3,4‐Tetrahydropyrimidine‐5‐Carboxylate] | 90.6 ± 3.35 | 71.5 | 91.33 ± 0.64 | 71.87 ± 4.77% | 
72.1 | 680 | 13.1 |  | COc1ccc(C2NC(=O)NC(C)=C2C(=O)OCc2ccc(OC)c(OC)c2)c(F)c1 (stereo not drawn) [Compound 5b, 3,4‐Dimethoxybenzyl 4‐(2‐Fluoro‐4‐Methoxyphenyl)‐6‐Methyl‐2‐Oxo‐1,2,3,4‐Tetrahydropyrimidine‐5‐Carboxylate] | 99.9 ± 1.5 | 44.9 | 89.7 ± 1.37 | 71.39 ± 2.94% | 
22.7 | 2460 | 4.28 |  | COc1ccc(COC(=O)C2=C(C)NC(=O)NC2c2ccc(Cl)cc2)cc1OC (stereo not drawn) [Compound 5c, 3,4‐Dimethoxybenzyl‐4‐(4‐Chlorophenyl)‐6‐Methyl‐2‐Oxo‐1,2,3,4‐Tetrahydropyrimidine‐5‐Carboxylate] | 99.4 ± 3.16 | 12.6 | < 80 | 64.29 ± 3.69% | 73.55 ± 3.50
98.9 | 2290 | 13.7 |  | CC1=C(C(=O)OCc2ccccc2)C(c2ccc(OC(F)(F)F)cc2F)NC(=O)N1 (stereo not drawn) [Compound 5f, Benzyl 4‐(2‐Fluoro‐4‐(Trifluoromethoxy)phenyl)‐6‐Methyl‐2‐Oxo‐1,2,3,4‐Tetrahydropyrimidine‐5‐Carboxylate] | 95.1 ± 3.82 | 16.4 | 85.7 ± 2.65 | 72.41 ± 3.21% | 
19.3 | 830 | 32.6 |  | COc1ccc(COC(=O)C2=C(C)NC(=O)NC2c2cccc(Cl)c2)cc1OC (stereo not drawn) [Compound 5g, 3,4‐Dimethoxybenzyl 4‐(3‐Chlorophenyl)‐6‐Methyl‐2‐Oxo‐1,2,3,4‐Tetrahydropyrimidine‐5‐Carboxylate] | 96.7 ± 3.77 | 39.1 | < 80 | 50.04 ± 2.3% | 72.16 ± 7.20
23.7 | 9080 | 6.47 |  | COc1cccc(COC(=O)C2=C(C)NC(=O)NC2c2ccc(Cl)cc2)c1 (stereo not drawn) [Compound 5h, 3‐Methoxybenzyl 4‐(4‐Chlorophenyl)‐6‐Methyl‐2‐Oxo‐1,2,3,4‐Tetrahydropyrimidine‐5‐Carboxylate] | 81 ± 2.36 | 12.3 | 88 ± 3.1 | 42.34 ± 4.80% | 
40 | 560 | 9.59 | 40 | COc1ccc(COC(=O)C2=C(C)NC(=O)NC2c2ccc(Cl)cc2)cc1 (stereo not drawn) [Compound 5i, 4‐Methoxybenzyl 4‐(4‐Chlorophenyl)‐6‐Methyl‐2‐Oxo‐1,2,3,4‐Tetrahydropyrimidine‐5‐Carboxylate] | 94.3 ± 2.95 | 98.5 | 83.26 ± 0.69 | 8.39% and 8.39 ± 2.84% | 
65.7 | 3490 | 32.5 |  | COc1ccc(COC(=O)C2=C(C)NC(=O)NC2c2ccccc2Cl)cc1OC (stereo not drawn) [Compound 5j, 3,4‐Dimethoxybenzyl 4‐(2‐Chlorophenyl)‐6‐Methyl‐2‐Oxo‐1,2,3,4‐Tetrahydropyrimidine‐5‐Carboxylate] | 93 ± 2.59 | 58 | < 80 | 58.18 ± 4.42% | 76.50 ± 4.28
